pEC50, pIC50: −log10 of the molar value. Like-named read-outs stand apart in the source and are kept apart here.
Tests used:
[1] = target: recombinant RSV complex (Human respiratory syncytial virus A, UniProt P28887); experiment: RSV Polymerase Inhibition Assay; assay type: biochemical
Outline: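 Inhibition measured as reduced incorporation of radiolabel into RNA products, detected by scintillation counting. Reactions: recombinant RSV complex (10 nM), RNA oligonucleotides, Tris-HCl pH 7.5, 6 mM MgCl2, inhibitor titration, 2 h at 30 °C, EDTA stop.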

[2] = test system: RSV replicon; experiment: microbe, parasite or virus in culture; assay type: cell-based; settings: human respiratory syncytial virus, read-out: EC50, the concentration of the drug required for reducing RSV replicon RNA by 50%
[3] = test system: Respiratory Syncytial Virus (RSV) long strain; experiment: microbe, parasite or virus in culture; assay type: cell-based; settings: human respiratory syncytial virus, HEp-2, 120 h, read-out: 50% effective concentration (EC50), HEp-2 cells infected with RSV long strain, 5 days, CCK-8 readout; Tables A and B list compounds by EC50 band
Outline: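 CPE-reduction format: viability measured colorimetrically with CCK-8 (450 nm, 630 nm reference) after 3-4 h, following 5-day infection at 37 °C, 5% CO2. Cells were HEp-2; inoculum 100 TCID50/well; duplicate 9-point 1/3 series starting at 100 μM or 1 μM.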

[4] = Cytotoxicity Determination (CCK-8, without addition of virus); assay type: cell-based; settings: human, 50% cytotoxicity concentration (CC50)
Outline: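 Cytotoxicity was measured by CCK-8 after 3-4 hours at 37 °C, following 5 days of uninfected exposure at 37 °C and 5% CO2. Compounds ran as duplicate 7-point 1/2 dilutions starting at 100 μM, with 1% final DMSO. HEp-2 cells had been plated at 1,500/well the day before.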

Sequence of recombinant RSV complex (P28887 whole entry): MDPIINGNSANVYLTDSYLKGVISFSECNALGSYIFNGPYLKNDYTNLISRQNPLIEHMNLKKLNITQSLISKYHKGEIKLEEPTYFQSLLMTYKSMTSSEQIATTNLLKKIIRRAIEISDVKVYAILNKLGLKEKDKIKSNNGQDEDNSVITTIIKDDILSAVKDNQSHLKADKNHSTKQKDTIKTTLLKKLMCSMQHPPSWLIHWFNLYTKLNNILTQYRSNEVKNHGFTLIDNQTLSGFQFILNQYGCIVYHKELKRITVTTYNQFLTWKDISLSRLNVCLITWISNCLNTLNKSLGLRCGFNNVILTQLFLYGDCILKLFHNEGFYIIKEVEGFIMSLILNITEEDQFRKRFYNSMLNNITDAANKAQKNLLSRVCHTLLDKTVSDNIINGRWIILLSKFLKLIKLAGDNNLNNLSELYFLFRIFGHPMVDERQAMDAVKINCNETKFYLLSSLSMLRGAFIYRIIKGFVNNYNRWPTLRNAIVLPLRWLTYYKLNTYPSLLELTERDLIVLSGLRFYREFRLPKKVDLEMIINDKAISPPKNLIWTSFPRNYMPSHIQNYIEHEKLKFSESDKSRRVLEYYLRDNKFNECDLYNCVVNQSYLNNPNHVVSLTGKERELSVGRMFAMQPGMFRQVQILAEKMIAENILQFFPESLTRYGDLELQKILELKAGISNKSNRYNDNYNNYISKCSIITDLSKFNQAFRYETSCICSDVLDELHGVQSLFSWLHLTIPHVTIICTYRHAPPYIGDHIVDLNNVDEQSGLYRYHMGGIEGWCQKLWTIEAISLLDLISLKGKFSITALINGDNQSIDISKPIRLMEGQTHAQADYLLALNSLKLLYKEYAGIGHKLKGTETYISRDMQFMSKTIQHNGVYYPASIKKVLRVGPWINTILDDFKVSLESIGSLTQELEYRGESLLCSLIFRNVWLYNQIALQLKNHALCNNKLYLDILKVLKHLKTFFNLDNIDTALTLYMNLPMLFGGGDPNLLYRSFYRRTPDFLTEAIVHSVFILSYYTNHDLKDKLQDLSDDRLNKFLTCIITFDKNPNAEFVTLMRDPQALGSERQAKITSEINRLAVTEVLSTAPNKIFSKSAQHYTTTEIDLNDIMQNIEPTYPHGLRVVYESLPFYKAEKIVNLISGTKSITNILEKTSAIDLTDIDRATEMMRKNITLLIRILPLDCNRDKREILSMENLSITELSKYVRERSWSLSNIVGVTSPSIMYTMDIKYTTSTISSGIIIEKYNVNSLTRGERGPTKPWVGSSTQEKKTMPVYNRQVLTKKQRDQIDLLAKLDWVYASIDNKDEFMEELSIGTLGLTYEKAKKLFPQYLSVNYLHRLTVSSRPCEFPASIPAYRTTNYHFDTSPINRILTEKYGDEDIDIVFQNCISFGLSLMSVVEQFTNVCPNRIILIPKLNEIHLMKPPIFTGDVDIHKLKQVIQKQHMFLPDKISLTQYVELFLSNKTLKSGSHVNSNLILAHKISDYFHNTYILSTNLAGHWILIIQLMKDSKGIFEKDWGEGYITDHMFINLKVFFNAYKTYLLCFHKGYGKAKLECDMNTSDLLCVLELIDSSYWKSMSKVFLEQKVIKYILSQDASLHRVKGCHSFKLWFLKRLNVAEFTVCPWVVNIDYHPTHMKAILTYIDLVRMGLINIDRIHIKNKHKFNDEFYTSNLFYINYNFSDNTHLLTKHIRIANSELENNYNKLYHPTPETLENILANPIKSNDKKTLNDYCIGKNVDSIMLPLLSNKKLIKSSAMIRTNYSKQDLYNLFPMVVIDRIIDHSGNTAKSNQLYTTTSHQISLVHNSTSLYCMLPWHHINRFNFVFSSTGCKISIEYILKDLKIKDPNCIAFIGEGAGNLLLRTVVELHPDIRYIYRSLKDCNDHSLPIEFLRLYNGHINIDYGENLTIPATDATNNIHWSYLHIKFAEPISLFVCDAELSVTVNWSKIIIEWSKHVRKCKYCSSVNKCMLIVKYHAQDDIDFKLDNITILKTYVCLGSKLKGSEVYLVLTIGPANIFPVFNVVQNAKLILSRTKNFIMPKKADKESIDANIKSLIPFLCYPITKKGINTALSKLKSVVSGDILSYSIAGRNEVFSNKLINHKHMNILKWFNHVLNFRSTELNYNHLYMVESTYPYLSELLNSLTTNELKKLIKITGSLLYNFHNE
Sequence of recombinant RSV complex (P03421 whole entry, further chain): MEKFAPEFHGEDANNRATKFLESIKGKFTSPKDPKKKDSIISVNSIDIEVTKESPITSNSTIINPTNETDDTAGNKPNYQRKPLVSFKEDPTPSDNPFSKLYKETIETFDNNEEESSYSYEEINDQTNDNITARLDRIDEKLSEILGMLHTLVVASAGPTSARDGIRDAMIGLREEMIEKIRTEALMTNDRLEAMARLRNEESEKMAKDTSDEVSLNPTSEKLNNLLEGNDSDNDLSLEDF

| SMILES | pIC50 [1] | pEC50 [2] | pIC50 ([1]; read-out: IC50 (compound concentration at which the enzyme-catalyzed rate was reduced by 50%), 10 nM recombinant RSV complex, 2 h at 30° C., Tables E, F and G list compounds by IC50 band) | pEC50 [3] | CC50 at 5 days [4] [µM] |
| --- | --- | --- | --- | --- | --- |
| CNC(C)(C)c1cc(-c2ccc(F)cc2)nc(C(O)(CNC(=O)c2ccc(OC3CC3)c(OC)c2)C(F)(F)F)c1 (centres unmarked) [Compound 393] | > 6.00 | > 6.00 |  |  |  |
| COc1cc(C(=O)NCC(O)(c2cc(C3(C)CN(C(C)C)C3)cc(-c3ccc(F)cc3)n2)C(F)(F)F)ccc1OCCO (centres unmarked) [Compound 584] | > 6.00 | > 6.00 |  |  |  |
| COc1cc(C(=O)NCC(O)(c2cc3c(c(-c4ccc(Br)cc4)n2)OCC3(C)N)C(F)(F)F)ccc1OCCO (centres unmarked) [Compound 651] | > 6.00 | > 6.00 |  |  |  |
| COc1cc(C(=O)NCC(O)(c2cc(C(C)(C)N)cc(-c3ccc(F)cc3)n2)C(F)(F)F)ccc1O[C@H]1CCNC1=O (some centres unmarked) [Compound 319] | > 6.00 | > 6.00 |  |  |  |
| COc1cc(C(=O)NCC(C)(OC)c2ccc(OC)c(-c3ccc(F)c(Cl)c3)n2)ccc1OC1CC1 (centres unmarked) [Compound 376] | > 6.00 | > 6.00 |  |  |  |
| COc1cc(C(=O)NCC(O)(c2cc(C(C)(C)NC(C)=O)cc(-c3ccc(F)c(Cl)c3)n2)C(F)(F)F)ccc1OC[C@@H](C)O (some centres unmarked) [Compound 601] | > 6.00 | > 6.00 |  |  |  |
| COc1cc(C(=O)NCC(O)(c2cc(C(C)(C)CN)cc(-c3ccc(F)c(Cl)c3)n2)C(F)(F)F)ccc1OC1CC1 (centres unmarked) [Compound 397] | > 6.00 | > 6.00 |  |  |  |
| COc1cc(C(=O)NCC(O)(c2cc(C(C)(C)N)cc(-c3ccc(F)c(Cl)c3)n2)C(F)(F)F)ccc1OCC(F)F (centres unmarked) [Compound 395] | > 6.00 | > 6.00 |  |  |  |
| COc1cc(C(=O)NCC(C)(O)c2ccc(OC)c(-c3ccc(F)c(Cl)c3)n2)ccc1-n1cccn1 (centres unmarked) [Compound 128] | > 6.00 | 4.30 to 6.00 |  |  |  |
| COc1cc(C(=O)NCC(O)(c2cc3c(c(-c4c[nH]c5c(F)cccc45)n2)OCC3(C)N)C(F)(F)F)ccc1OCCO (centres unmarked) [Compound 647] | > 6.00 | > 6.00 |  |  |  |
| COc1cc(C(=O)NCC(F)(c2cc(C(C)(C)N)cc(-c3ccc(F)c(Cl)c3)n2)C(F)(F)F)ccc1OC1CC1 (centres unmarked) [Compound 641] | > 6.00 | > 6.00 |  |  |  |
| COc1cc(C(=O)NCC(O)(c2ccc(OC)c(-c3ccc(F)cc3)n2)C(F)(F)F)ccc1OCC(F)F (centres unmarked) [Compound 341] |  | > 6.00 | > 6.00 |  |  |
| COc1cc(C(=O)NCC(O)(c2cc(C3(NC(C)=O)CCC3)cc(-c3ccc(F)c(Cl)c3)n2)C(F)(F)F)ccc1OC1CC1 (centres unmarked) [Compound 354] | > 6.00 | > 6.00 |  |  |  |
| COc1cc(C(=O)NCC(O)(c2ccc(OC)c(-c3ccc(F)c(Cl)c3)n2)C(F)(F)F)ccc1OCc1ccn[nH]1 (centres unmarked) [Compound 332] | > 6.00 | 4.30 to 6.00 |  |  |  |
| COc1cc(C(=O)NCC(O)(c2cc(C(C)(C)N)cc(-c3ccc(F)c(Cl)c3)n2)C(F)(F)F)ccc1OCC(C)OC(=O)OC(C)C (centres unmarked) [Compound 572] | > 5.00 | > 6.00 |  |  |  |
| COc1cc(C(=O)NCC(O)(c2cc(C3(C)CC(O)C3)cc(-c3ccc(F)c(Cl)c3)n2)C(F)(F)F)ccc1OC1CC1 (centres unmarked) [Compound 564] | > 5.00 | > 6.00 |  |  |  |
| COc1cc(C(=O)NCC(O)(c2cc(C(C)(N)CO)cc(-c3ccc(F)cc3)n2)C(F)(F)F)ccc1OC1CC1 (centres unmarked) [Compound 600] | > 6.00 | > 6.00 |  |  |  |
| CCNCc1cc(-c2ccc(F)cc2)nc(C(O)(CNC(=O)c2ccc(OC3CC3)c(OC)c2)C(F)(F)F)c1 (centres unmarked) [Compound 389] | > 6.00 | > 6.00 |  |  |  |
| COc1cc(C(=O)NCC(C)(O)c2cc3c(c(-c4ccc(F)c(Cl)c4)n2)OCC=C3)ccc1OCCO (centres unmarked) [Compound 307] | > 6.00 | > 6.00 |  |  |  |
| COc1ccc(C(=O)NCC(O)(c2cc(C(C)(C)N)cc(-c3ccc(F)c(Cl)c3)n2)C(F)(F)F)cc1OC (centres unmarked) [Compound 316] | > 6.00 | > 6.00 |  |  |  |

| SMILES | pIC50 [1] | pEC50 [2] | pIC50 ([1]; read-out: IC50 (compound concentration at which the enzyme-catalyzed rate was reduced by 50%), 10 nM recombinant RSV complex, 2 h at 30° C., Tables E, F and G list compounds by IC50 band) | pEC50 [3] | CC50 at 5 days [4] [µM] |
| --- | --- | --- | --- | --- | --- |
| COc1cc(C(=O)NCC(C)(O)c2ccc(OC)c(-c3ccc(F)c(Cl)c3)n2)ccc1OCS(C)(=O)=O (centres unmarked) [Compound 379] | > 6.00 | > 6.00 |  |  |  |
| COc1cc(C(=O)NCC(O)(c2cc3c(c(-c4ccc(F)cc4)n2)OCC3(C)N)C(F)(F)F)ccc1OC1CC1 (centres unmarked) [Compound 509] | > 6.00 | > 6.00 |  |  |  |
| CCNC(C)(C)c1cc(-c2ccc(F)c(Cl)c2)nc(C(O)(CNC(=O)c2ccc(OC3CC3)c(OC)c2)C(F)(F)F)c1 (centres unmarked) [Compound 390] | > 6.00 | > 6.00 |  |  |  |
| COC(=O)C(C)(N)c1cc(-c2ccc(F)cc2)nc(C(O)(CNC(=O)c2ccc(OC3CC3)c(OC)c2)C(F)(F)F)c1 (centres unmarked) [Compound 622] | > 6.00 | > 6.00 |  |  |  |
| COc1cc(C(=O)NCC(O)(c2cc3c(c(-c4ccc(F)c(Cl)c4)n2)OCC=C3)C2CC2)ccc1OCCO (centres unmarked) [Compound 306] | > 6.00 | > 6.00 |  |  |  |
| COc1cc(C(=O)NCC(O)(c2cc(C3(C)CCN(C)C3)cc(-c3ccc(F)cc3)n2)C(F)(F)F)ccc1OC1CC1 (centres unmarked) [Compound 506] | > 6.00 | > 6.00 |  |  |  |
| COc1cc(C(=O)NCC(C)(O)c2ccc(OC)c(-c3ccc(F)c(Cl)c3)n2)ccc1-c1ccncc1 (centres unmarked) [Compound 147] | > 6.00 | > 6.00 |  |  |  |
| COc1cc(C(=O)NCC(O)(c2ccc(OC)c(-c3ccc(F)c(Cl)c3)n2)C2CC2)ccc1OCC(N)=O (centres unmarked) [Compound 398] | > 6.00 | > 6.00 |  |  |  |
| COc1ccc(C(C)(O)CNC(=O)c2ccc(-c3nc(C)no3)cc2)nc1-c1ccc(F)c(Cl)c1 (centres unmarked) [Compound 175] | > 5.00 |  |  | 4.30 to 6.00 | > 100 |
| COc1cc(C(=O)NCC(N)(c2ccc(OC)c(-c3ccc(F)c(Cl)c3)n2)C(F)F)ccc1OC1CC1 (centres unmarked) [Compound 517] | > 6.00 |  |  | > 6.00 | 10 to 100 |
| COc1cc(C(=O)NC[C@](O)(c2cc3c(c(-c4ccc(F)cc4)n2)OC[C@]3(C)N)C(F)(F)F)ccc1OC[C@@H](C)O [Compound 631] | > 6.00 |  |  | > 6.00 | 10 to 100 |
| COc1cc(C(=O)NCC(C)(O)c2ncc(OC)c(-c3ccc(F)c(Cl)c3)n2)ccc1OCCO (centres unmarked) [Compound 109] | > 5.00 |  |  | 4.30 to 6.00 | > 100 |
| COc1cc(C(=O)NCC(O)(c2cc(CO)cc(-c3ccc(F)c(Cl)c3)n2)C(F)(F)F)ccc1OC1CC1 (centres unmarked) [Compound 465] | > 6.00 |  |  | > 6.00 | 10 to 100 |
| CC1(N)COc2c1cc(C(O)(CNC(=O)c1ccc(OCCO)c(F)c1)C(F)(F)F)nc2-c1ccc(F)cc1 (centres unmarked) [Compound 476] | > 6.00 |  |  | > 6.00 | 10 to 100 |
| COc1cc(C(=O)NC[C@@](O)(c2cc3c(c(-c4ccc(C#N)cc4)n2)OC[C@]3(C)N)C(F)(F)F)ccc1OCCO [Compound 604b] | > 5.00 |  |  | 4.30 to 6.00 | > 100 |
| COc1cc(C(=O)NCC(O)(c2cc3c(c(-c4c[nH]c5c(F)cccc45)n2)OCC3)C2CC2)ccc1OCCO (centres unmarked) [Compound 297] | > 6.00 |  |  | > 6.00 | 10 to 100 |
| COc1ccc(C(O)(CNC(=O)c2ccc(OC3CC3)c(Cl)c2)C(F)(F)F)nc1-c1ccc(F)c(Cl)c1 (centres unmarked) [Compound 251] | > 6.00 |  |  | 4.30 to 6.00 | 10 to 100 |
| COc1cc(C(=O)NCC(=O)c2cc3c(c(-c4ccc(F)c(Cl)c4)n2)OCC3(C)O)ccc1OC1CC1 (centres unmarked) [Compound 473] | > 6.00 |  |  | > 6.00 | 10 to 100 |
| COc1ccc(C(O)(CNC(=O)c2ccc3ncsc3c2)C(F)(F)F)nc1-c1ccc(F)c(Cl)c1 (centres unmarked) [Compound 254] | > 6.00 |  |  | 4.30 to 6.00 | 10 to 100 |
